Data published in patent publication US10308637B2 (LifeSci Pharmaceuticals, Inc., priority 2015, dated 2019).

Experiment: Contact Assay (percentage inhibition from fluorescence intensity)
Type: biochemical
Description: The percentage inhibition was calculated using the following equation:
[formula] where, Mean(BG) is the average value of the fluorescence intensity of the background wells and Mean(PC) is the average value of the fluorescence intensity of the positive control wells.
Table 4 provides the EC50 values of various compounds disclosed herein.

Structure (SMILES)	EC50 [nM]
Cc1cc(N)nc(C)c1CNC(=O)c1ccnc(Cc2cc(C(C)(C)O)c3ncc(Cl)cc3c2)c1 [Example 219, N-((6-amino-2,4-dimethylpyridin-3-yl)methyl)-2-((3-chloro-8-(2-hydroxypropan-2-yl)quinolin-6-yl)methyl)isonicotinamide]	≤ 100
CC(C)(O)c1cc(Cc2cc(C(=O)NCc3cnc4[nH]cc(Cl)c4c3)ccn2)cc2cc(Cl)cnc12 [Example 223, N-((3-chloro-1H-pyrrolo[2,3-b]pyridin-5-yl)methyl)-2-((3-chloro-8-(2-hydroxypropan-2-yl)quinolin-6-yl)methyl)isonicotinamide]	≤ 100
Cc1cc(N)nc(C)c1CNC(=O)c1ccnc(Cc2ccc3ncc(C(F)(F)F)cc3c2)c1 [Example 228, N-((6-amino-2,4-dimethylpyridin-3-yl)methyl)-2-((3-(trifluoromethyl)quinolin-6-yl)methyl)isonicotinamide]	≤ 100
Cc1nc(N)ccc1CNC(=O)c1ccnc(Cc2ccc3ncc(C(F)(F)F)cc3c2)c1 [Example 229, N-((6-amino-2-methylpyridin-3-yl)methyl)-2-((3-(trifluoromethyl)quinolin-6-yl)methyl)isonicotinamide]	≤ 100
O=C(NCc1cc2c(Cl)c[nH]c2cc1F)c1ccnc(Cc2ccc3ncc(C(F)(F)F)cc3c2)c1 [Example 230, N-((3-chloro-6-fluoro-1H-indol-5-yl)methyl)-2-((3-(trifluoromethyl)quinolin-6-yl)methyl)isonicotinamide]	100 to 1000
Cc1nc2ccc(Cc3cc(C(=O)NCc4ccc(N)nc4C)ccn3)cc2cc1Cl [Example 239, N-((6-amino-2-methylpyridin-3-yl)methyl)-2-((3-chloro-2-methylquinolin-6-yl)methyl)isonicotinamide]	100 to 1000
Cc1cc(N)nc(C)c1CNC(=O)c1ccnc(Cc2cc(CN)c3ncc(Cl)cc3c2)c1 [Example 241, N-((6-amino-2,4-dimethylpyridin-3-yl)methyl)-2-((8-(aminomethyl)-3-chloroquinolin-6-yl)methyl)isonicotinamide]	≤ 100
Cc1cc(N)nc(C)c1CNC(=O)c1ccnc(Cc2ccc3ncc(C4CC4)cc3c2)c1 [Example 243, N-((6-amino-2,4-dimethylpyridin-3-yl)methyl)-2-((3-cyclopropylquinolin-6-yl)methyl)isonicotinamide]	≤ 100
O=C(NCc1cc2c(Cl)c[nH]c2cc1F)c1ccnc(Cc2ccc3ncc(C4CC4)cc3c2)c1 [Example 245, N-((3-chloro-6-fluoro-1H-indol-5-yl)methyl)-2-((3-cyclopropylquinolin-6-yl)methyl)isonicotinamide]	100 to 1000
O=C(NCc1cnc2[nH]cc(Cl)c2c1)c1ccnc(Cc2ccc3ncc(C4CC4)cc3c2)c1 [Example 246, N-((3-chloro-1H-pyrrolo[2,3-b]pyridin-5-yl)methyl)-2-((3-cyclopropylquinolin-6-yl)methyl)isonicotinamide]	100 to 1000
O=C(NCc1ccc2[nH]cc(Cl)c2c1F)c1ccnc(Cc2ccc3ncc(C4CC4)cc3c2)c1 [Example 248, N-((3-chloro-4-fluoro-1H-indol-5-yl)methyl)-2-((3-cyclopropylquinolin-6-yl)methyl)isonicotinamide]	100 to 1000
O=C(NCc1n[nH]c2ccc(Cl)cc12)c1ccnc(Cc2ccc3ncc(C4CC4)cc3c2)c1 [Example 249, N-((5-chloro-1H-indazol-3-yl)methyl)-2-((3-cyclopropylquinolin-6-yl)methyl)isonicotinamide]	100 to 1000
Cc1cc(N)nc(C)c1CNC(=O)c1ccnc(Cc2cc(-c3nnn[nH]3)c3ncc(Cl)cc3c2)c1 [Example 272, N-((6-amino-2,4-dimethylpyridin-3-yl)methyl)-2-((3-chloro-8-(1H-tetrazol-5-yl)quinolin-6-yl)methyl)isonicotinamide]	100 to 1000
Cc1cc(N)nc(C)c1CNC(=O)c1ccnc(C(O)c2ccc3ncc(Cl)cc3c2)c1 (centres unmarked) [Example 275, N-((6-amino-2,4-dimethylpyridin-3-yl)methyl)-2-((3-chloroquinolin-6-yl)(hydroxy)methyl)isonicotinamide]	100 to 1000
Cc1cc(N)nc(C)c1CNC(=O)c1ccnc(C(N)c2ccc3ncc(Cl)cc3c2)c1 (centres unmarked) [Example 276, 2-[Amino-(3-chloro-quinolin-6-yl)-methyl]-N-(6-amino-2,4-dimethyl-pyridin-3-ylmethyl)-isonicotinamide]	100 to 1000

Other lines, results leading:

EC50 [nM]	Structure (SMILES)
≤ 100	Cc1cc(N)nc(C)c1CNC(=O)c1cc(CC(N)=O)nc(Cc2ccc3ncc(Cl)cc3c2)c1 [Example 214, N-((6-amino-2,4-dimethylpyridin-3-yl)methyl)-2-(2-amino-2-oxoethyl)-6-((3-chloroquinolin-6-yl)methyl)isonicotinamide]
100 to 1000	Cc1cc(N)nc(C)c1CNC(=O)c1ccnc(Cc2cc3cc(C(F)(F)F)cnc3[nH]2)c1 [Example 215, N-((6-amino-2,4-dimethylpyridin-3-yl)methyl)-2-((5-(trifluoromethyl)-1H-pyrrolo[2,3-b]pyridin-2-yl)methyl)isonicotinamide]
≤ 100	Cc1cc(N)nc(C)c1CNC(=O)c1ccnc(Cc2cc(N)c3ncc(Cl)cc3c2)c1 [Example 217, N-((6-amino-2,4-dimethylpyridin-3-yl)methyl)-2-((8-amino-3-chloroquinolin-6-yl)methyl)isonicotinamide]
≤ 100	Cc1nc(N)ccc1CNC(=O)c1ccnc(Cc2cc(C(C)(C)O)c3ncc(Cl)cc3c2)c1 [Example 220, N-((6-amino-2-methylpyridin-3-yl)methyl)-2-((3-chloro-8-(2-hydroxypropan-2-yl)quinolin-6-yl)methyl)isonicotinamide]
100 to 1000	CC(C)(O)c1cc(Cc2cc(C(=O)NCc3cc4c(Cl)c[nH]c4cc3F)ccn2)cc2cc(Cl)cnc12 [Example 221, N-((3-chloro-6-fluoro-1H-indol-5-yl)methyl)-2-((3-chloro-8-(2-hydroxypropan-2-yl)quinolin-6-yl)methyl)isonicotinamide]
100 to 1000	CC(C)(O)c1cc(Cc2cc(C(=O)NCc3ccc4[nH]cc(Cl)c4c3F)ccn2)cc2cc(Cl)cnc12 [Example 222, N-((3-chloro-4-fluoro-1H-indol-5-yl)methyl)-2-((3-chloro-8-(2-hydroxypropan-2-yl)quinolin-6-yl)methyl)isonicotinamide]
≤ 100	CC(C)(O)c1cc(Cc2cc(C(=O)NCc3ccc4c(N)nccc4c3)ccn2)cc2cc(Cl)cnc12 [Example 224, N-((1-aminoisoquinolin-6-yl)methyl)-2-((3-chloro-8-(2-hydroxypropan-2-yl)quinolin-6-yl)methyl)isonicotinamide]
100 to 1000	CC(C)(O)c1cc(Cc2cc(C(=O)NCc3n[nH]c4ccc(Cl)cc34)ccn2)cc2cc(Cl)cnc12 [Example 225, N-((5-chloro-1H-indazol-3-yl)methyl)-2-((3-chloro-8-(2-hydroxypropan-2-yl)quinolin-6-yl)methyl)isonicotinamide]
≤ 100	Cc1cc(N)nc(C)c1CNC(=O)c1ccnc(Cc2cnc3cc(F)c(Cl)cc3c2)c1 [Example 226, N-((6-amino-2,4-dimethylpyridin-3-yl)methyl)-2-((6-chloro-7-fluoroquinolin-3-yl)methyl)isonicotinamide]
100 to 1000	O=C(NCc1cnc2[nH]cc(Cl)c2c1)c1ccnc(Cc2ccc3ncc(C(F)(F)F)cc3c2)c1 [Example 231, N-((3-chloro-1H-pyrrolo[2,3-b]pyridin-5-yl)methyl)-2-((3-(trifluoromethyl)quinolin-6-yl)methyl)isonicotinamide]
≤ 100	Nc1nccc2cc(CNC(=O)c3ccnc(Cc4ccc5ncc(C(F)(F)F)cc5c4)c3)ccc12 [Example 232, N-((1-aminoisoquinolin-6-yl)methyl)-2-((3-(trifluoromethyl)quinolin-6-yl)methyl)isonicotinamide]
100 to 1000	O=C(NCc1ccc2[nH]cc(Cl)c2c1F)c1ccnc(Cc2ccc3ncc(C(F)(F)F)cc3c2)c1 [Example 234, N-((3-chloro-4-fluoro-1H-indol-5-yl)methyl)-2-((3-(trifluoromethyl)quinolin-6-yl)methyl)isonicotinamide]
≤ 100	Cc1cc(N)nc(C)c1CNC(=O)c1ccnc(Cc2cc(S(N)(=O)=O)c3ncc(Cl)cc3c2)c1 [Example 235, N-((6-amino-2,4-dimethylpyridin-3-yl)methyl)-2-((3-chloro-8-sulfamoylquinolin-6-yl)methyl)isonicotinamide]
≤ 100	Cc1nc(N)ccc1CNC(=O)c1ccnc(Cc2cc(S(N)(=O)=O)c3ncc(Cl)cc3c2)c1 [Example 236]
≤ 100	Cc1cc(N)nc(C)c1CNC(=O)c1ccnc(Cc2ccc3nc(C)c(Cl)cc3c2)c1 [Example 238, N-((6-amino-2,4-dimethylpyridin-3-yl)methyl)-2-((3-chloro-2-methylquinolin-6-yl)methyl)isonicotinamide]
≤ 100	Nc1nccc2cc(CNC(=O)c3ccnc(Cc4ccc5ncc(C6CC6)cc5c4)c3)ccc12 [Example 247, N-((1-aminoisoquinolin-6-yl)methyl)-2-((3-cyclopropylquinolin-6-yl)methyl)isonicotinamide]
≤ 100	Cc1nc(N)ccc1CNC(=O)c1ccnc(Cc2cc(CN)c3ncc(Cl)cc3c2)c1 [Example 253, N-((6-amino-2-methylpyridin-3-yl)methyl)-2-((8-(aminomethyl)-3-chloroquinolin-6-yl)methyl)isonicotinamide]
≤ 100	Cc1cc(N)nc(C)c1CNC(=O)c1ccnc(Cc2ccc3ncc(C(C)C)cc3c2)c1 [Example 254, N-((6-amino-2,4-dimethylpyridin-3-yl)methyl)-2-((3-isopropylquinolin-6-yl)methyl)isonicotinamide]
≤ 100	CCCc1cnc2ccc(Cc3cc(C(=O)NCc4c(C)cc(N)nc4C)ccn3)cc2c1 [Example 255, N-((6-amino-2,4-dimethylpyridin-3-yl)methyl)-2-((3-propylquinolin-6-yl)methyl)isonicotinamide]
≤ 100	COc1cnc2ccc(Cc3cc(C(=O)NCc4c(C)cc(N)nc4C)ccn3)cc2c1 [Example 264, N-((6-amino-2,4-dimethylpyridin-3-yl)methyl)-2-((3-methoxyquinolin-6-yl)methyl)isonicotinamide]
